Publication PMC4701221, “Novel Promising Estrogenic Receptor Modulators: Cytotoxic and Estrogenic Activity of Benzanilides and Dithiobenzanilides” (PLoS ONE, 2016)
Entries after “also recorded” stand apart in the source; their conditions may differ.

Legend:
[1] = test system: MCF-7 cells; assay: LDH release assay, MCF-7; assay type: cell-based, human; conditions: 72 h, Fig 2
Protocol: Cytotoxicity was evaluated by measuring the cell membrane permeability, using a LDH assay kit purchased from Cayman Chemical (Ann Arbor USA). The LDH assay was performed for MCF-7 and MDA-MB-231 cells (seeded at 2×10^4 density). As a positive control cell permeabilization with 1%Triton X-100 was used. The assay was performed 72h after start the incubation. Briefly, the plates were centrifuged at 400 ×g for 5 minutes, and 100 μL of supernatant were transferred from each well to the new 96-well plate and analyzed according to the manufacturer’s protocol. 100 μL of reaction mixture, containing lactic acid, NAD^+, tetrazolium salt and diaphorase, was added to each well. Plates were incubated on an orbital shaker for 30 minutes at room temperature and the absorbance at 490 nm was measured with a plate reader (Biotek Instruments, Elx-800). Results were expressed as a percentage of the total value of the positive control.

[2] = MTT assay, CCD39Lu; assay type: cell-based; conditions: human, CCD39Lu cells (non-tumorigenic lung fibroblasts), read-out: Cytotoxic activity IC50, CCD39Lu
Protocol: (§1) The cell lines used in the cytotoxicity study, besides MCF-12A, were purchased from European Collection of Cell Culture (ECACC, Salisbury, UK): HEK293 (human embryonic kidney, ATTC no. CRL-1573), A549 (Human lung carcinoma, ECACC no. 86012804), CCD39Lu (Human lung fibroblasts, ECACC no. 90110512), MCF-7 (Human breast adenocarcinoma, ECACC no. 86012803) and MDA-MB-231 (Human breast adenocarcinoma ECACC no. 92020424). Cell lines were cultured in DMEM medium without phenol red and supplemented with 10% (v/v) FBS, 1% penicillin-streptomycin and 1% L-glutamine. MCF-12A (ATTC no. […]) was purchased from American Type Culture Collection (ATCC Manassas, VA 20110 USA). MCF-12A cells were kept in 1:1 mixture of Dulbecco’s modified Eagle’s medium and Ham’s F12 medium, 20 ng/ml human epidermal growth factor, 100 ng/ml cholera toxin, 0.01 mg/ml bovine insulin, 500 ng/ml hydrocortisone and 5% horse serum. All cell lines were cultured at 37°C, in a humidified atmosphere containing 5% CO2.
(§2) Compounds were dissolved in DMSO to the final concentration of […]. A549, CCD39Lu, MCF-7, MDA-MB-231 and MCF-12A cells were seeded in 96 wells plates at density 2x10^4 cells/well and incubated overnight as described above. Subsequently, cells were treated with tested compounds at concentrations: 100 μM; 50 μM; 25μM; 12.5μM; 6 μM; 3 μM; 1.5 μM. […] Cells were incubated 72 h at 37°C in a humidified atmosphere containing 5% CO2 in the cell culture media appropriate for each cell line. Then, the medium was aspirated and 170 μl MTT solution (5mg/ml) was added to each well. Plates were incubated for 2 hours at 37°C, and then plates were centrifuged at 1200 rpm for 3 minutes. The formazan crystals were dissolved in 200 μl DMSO and plates were further agitated on a plate shaker at 300–500 rpm for 10 minutes. Absorbance at 570 nm (with reference wavelenght 650 nm) was measured using a plate reader (Biotek Instruments, Elx-800). Cell viability was calculated as a percentage relative to the control.

[3] = target: T1, human ERα receptor (Homo sapiens, UniProt P03372); assay: Estrogen Receptor luciferase assay in HEK293 cells transfected with ERα; assay type: cell-based; conditions: HEK293 transfected with ERα and luciferase reporter, compared with estradiol, Fig 3A/3B
T1 construct: host or cells: HEK293
T1 sequence (P03372 1-595): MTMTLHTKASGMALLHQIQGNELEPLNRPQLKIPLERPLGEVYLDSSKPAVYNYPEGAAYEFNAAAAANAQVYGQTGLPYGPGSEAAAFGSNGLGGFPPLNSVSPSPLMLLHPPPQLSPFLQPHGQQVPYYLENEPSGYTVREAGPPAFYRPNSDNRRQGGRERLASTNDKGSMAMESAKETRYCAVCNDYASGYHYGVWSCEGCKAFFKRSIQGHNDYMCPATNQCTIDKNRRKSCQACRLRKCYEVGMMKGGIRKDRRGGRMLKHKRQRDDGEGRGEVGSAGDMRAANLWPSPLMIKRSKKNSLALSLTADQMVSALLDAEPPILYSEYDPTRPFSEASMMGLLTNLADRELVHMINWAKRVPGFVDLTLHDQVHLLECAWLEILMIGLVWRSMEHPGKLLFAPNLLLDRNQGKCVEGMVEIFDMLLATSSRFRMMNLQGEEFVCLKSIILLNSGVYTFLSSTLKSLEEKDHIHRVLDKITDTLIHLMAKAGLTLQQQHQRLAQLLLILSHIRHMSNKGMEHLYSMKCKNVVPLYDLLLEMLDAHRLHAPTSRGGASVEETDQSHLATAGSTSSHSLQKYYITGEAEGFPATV
Text: To obtain a eukaryotic vector expressing only the ER-α nuclear receptor, a construct was designed by cloning a KpnI-BamHI fragment from plasmid pEGFP-C1-ERα containing the ERα coding sequence that includes a stop signal into the pEGFP-N3 plasmid (Clontech Laboratories, Palo Alto, CA) under the control of the CMV promoter. This construction was termed pEGFP-N-ERα, and although it encoded both human ERα receptor and GFP protein, only the former is expressed. For mock transfections, pEGFP-N3 plasmid was digested with BglII and NotI and religated after polishing DNA ends to remove GFP coding sequence. Plasmid sequence was confirmed by automatic sequencing. Prior to transfection, cells were seeded in 48 well plates at density of 1.5 x 10^4 cells/well and incubated for 24 h to reach a cell confluence of 80–90%. […] MCF-7 cells, which endogenously express ERα receptor, were transfected with p3xERRE/ERE-luciferase plus the pRLTK Renilla luciferase control plasmid (95:5). Firefly and Renilla luciferase activities were measured using the Dual Luciferase Assay System (Promega, Madison, WI, USA), following a standard protocol using a Sirius L luminometer (Berthold Technologies, Bad Wildbad, Germany). Data were expressed as relative changes in luciferase activity and normalized to 100%.

[4] = test system: MDA-MB-231 cells; assay: MTT assay, MDA-MB-231; assay type: cell-based, human
Protocol: as §1, §2

[5] = test system: MDA-MB-231 cells; assay: Sulphorodamine B assay, MDA-MB-231; assay type: cell-based, human; conditions: 72 h, Fig 2
Protocol: In addition to the MTT assay, cell viability was measured by the Sulphorodamine B assay according to Vichai and Kirtikara. The MCF-7 and MDA-MB-23 cells were seeded and treated as for the MTT assay. After incubation the medium was removed and the cells were fixed with cold (4°C) trichloroacetic acid (final concentration 10%) for 1h. Than plates were washed 4 times with water and stained for 30 min, following by staining with sulforhodamine B (SRB) 0.4% in 1% acetic acid solution at room temperature for 20 min. After staining, the SRB solution was removed and the plates washed 5 times with 1% acetic acid dried. Bound SRB was solubilized with 200 μl 10 mM unbuffered Tris-base solution and plates were shaked for 10 min. The absorbance at 510 nm was measured using a plate reader (Biotek Instruments, Elx-800).

Fc1ccc(NC(=S)c2ccc(NC(=S)c3ccc(F)cc3)cc2)cc1 [Compound 18]
LDH release, MCF-7 [1]: relatively low increase | IC50 at 72 h [2]: > 100 µM | ER dependent transcriptional activity [3]: capable to mediate ER dependent transcriptional activity in a similar mode than estradiol; also recorded: higher transcriptional activity at all assayed concentrations compared with estradiol | Toxicity/effect in MTT assay (in words), MDA-MB-231 ([4]; 72 h): non-significant effects | IC50 ([4]; Homo sapiens, MDA-MB-231, 72 h, estrogen independent breast adenocarcinoma, read-out: Cytotoxic activity IC50, MDA-MB-231): > 100 µM | Effect in SRB assay, MDA-MB-231 [5]: non-significant effects
